Key:
[1] = target: T1, D2 receptor (long isoform, D2L) (Rattus norvegicus, UniProt P61169); conditions: competition for [3H]methylspiperone binding
Protocol: (§1) A 2.4-kb Xba I-Xho I fragment containing the entire coding region and most of the D2 receptor cDNA was excised from the pBluescript clone and ligated into the corresponding restriction sites of the pEUK-C1 vector (Clontech, Palo Alto, Calif.) The resulting plasmid, pEUK-D2L, was then transfected into COS-7 cells using a modified CaPO4 precipitation method (Clontech). The cells were treated with 3 mM sodium butyrate after 48 hr and were harvested after 72 hr.

[2] = target: T1, D2 receptor (long isoform, D2L); experiment: biochemical; conditions: transfected COS-7 cell membranes
Protocol: as §1

T1 sequence (P61169 whole entry, canonical isoform): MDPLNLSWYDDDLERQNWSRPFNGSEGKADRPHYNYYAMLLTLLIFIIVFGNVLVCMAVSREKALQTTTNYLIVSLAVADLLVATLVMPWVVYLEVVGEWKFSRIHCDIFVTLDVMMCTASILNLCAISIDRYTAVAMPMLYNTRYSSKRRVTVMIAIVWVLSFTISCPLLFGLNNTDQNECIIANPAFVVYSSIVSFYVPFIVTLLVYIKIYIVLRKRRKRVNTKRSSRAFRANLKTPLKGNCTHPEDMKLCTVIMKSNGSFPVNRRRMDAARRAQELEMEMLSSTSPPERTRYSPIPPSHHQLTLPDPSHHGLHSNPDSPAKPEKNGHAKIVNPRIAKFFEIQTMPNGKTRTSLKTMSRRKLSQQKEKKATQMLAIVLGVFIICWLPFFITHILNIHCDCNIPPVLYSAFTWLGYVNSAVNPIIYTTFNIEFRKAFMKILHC

Row | Hill coefficient of competition curve ([1]; transfected COS-7 cell membranes) | Kd ([2]; affinity of [3H]methylspiperone saturation binding, mean ± SEM) [nM] | Kd ([2]; calculated KD of [3H]methylspiperone binding (Scatchard), one experiment representative of three (FIG. 2A)) [nM] | Compound | effect of guanine nucleotides on competition curve ([1]; data not shown)
1 | ≈ 1 | – | – | NCCc1ccc(O)c(O)c1 [Dopamine] | not significantly affected by guanine nucleotides
2 | – | 0.0621 ± 0.0021 | 0.0641 | CN1CN(c2ccccc2)C2(CCN(CCCC(=O)c3ccc(F)cc3)CC2)C1=O [[3H]methylspiperone] | –

Source: patent publication US5128254A (The United States of America as represented by the …, priority 1989, dated 1992)
